# Reference: article PMC4467398, “Preclinical antitumor activity of ST7612AA1: a new oral thiol-based histone deacetylase (HDAC) inhibitor” (Oncotarget, 2014)
# Tested on: DOHH2 and TMD8 DLBCL cells
# Test: Gene expression profiling (HumanHT-12 v4 BeadChip, limma), ST7612AA1 300 nM 8 hrs vs DMSO
# Format: cell-based, human
# Details: 300 nM 8 hrs
structure (smiles),measurement,value
CC(=O)SCCCCC[C@H](NC(=O)[C@H]1CCC(=O)N1)C(=O)Nc1ccccc1 [ST7612AA1],AveExpr.ST7612 NOSIP (probe ILMN_1759436),7.06E-01
same,AveExpr.ST7612 NPC2 (probe ILMN_1716678),8.44E-01
same,AveExpr.ST7612 NPL (probe ILMN_1782070),7.76E-01
same,AveExpr.ST7612 NPL (probe ILMN_2149494),8.88E-01
same,AveExpr.ST7612 NQO2 (probe ILMN_1712918),8.69E-01
same,AveExpr.ST7612 NUB1 (probe ILMN_1665291),7.20E-01
same,AveExpr.ST7612 NUMB (probe ILMN_2331266),7.27E-01
same,AveExpr.ST7612 NXF1 (probe ILMN_1705783),8.80E-01
same,AveExpr.ST7612 NXF1 (probe ILMN_2358652),7.18E-01
same,AveExpr.ST7612 P704P (probe ILMN_1793950),6.85E-01
same,AveExpr.ST7612 PAQR8 (probe ILMN_1694589),7.20E-01
same,AveExpr.ST7612 PCYOX1 (probe ILMN_1679725),7.89E-01
same,AveExpr.ST7612 PDXK (probe ILMN_1672504),8.94E-01
same,AveExpr.ST7612 PECI (probe ILMN_2384536),8.25E-01
same,AveExpr.ST7612 PEX16 (probe ILMN_1745655),7.84E-01
same,AveExpr.ST7612 PIM2 (probe ILMN_1748283),7.43E-01
same,AveExpr.ST7612 PKIA (probe ILMN_2337974),7.37E-01
same,AveExpr.ST7612 PLD3 (probe ILMN_1666976),8.81E-01
same,AveExpr.ST7612 PMAIP1 (probe ILMN_2098446),8.50E-01
same,AveExpr.ST7612 PNKD (probe ILMN_1774604),7.25E-01
same,AveExpr.ST7612 PRDX2 (probe ILMN_1767766),8.35E-01
same,AveExpr.ST7612 PRDX2 (probe ILMN_2382829),7.41E-01
same,AveExpr.ST7612 PTGER4 (probe ILMN_1795930),9.03E-01
same,AveExpr.ST7612 PTTG1 (probe ILMN_1753196),6.92E-01
same,AveExpr.ST7612 RAB8B (probe ILMN_2173004),8.71E-01
same,AveExpr.ST7612 RAB24 (probe ILMN_2379718),7.77E-01
same,AveExpr.ST7612 RABGAP1 (probe ILMN_2061950),6.86E-01
same,AveExpr.ST7612 RAPGEF2 (probe ILMN_3247261),8.54E-01
same,AveExpr.ST7612 RASAL1 (probe ILMN_1793517),7.10E-01
same,AveExpr.ST7612 RASD2 (probe ILMN_2170209),7.75E-01
same,AveExpr.ST7612 REEP2 (probe ILMN_1666057),6.85E-01
same,AveExpr.ST7612 RFC1 (probe ILMN_2217935),7.23E-01
same,AveExpr.ST7612 RHBDD2 (probe ILMN_1809437),7.80E-01
same,AveExpr.ST7612 RHBDD2 (probe ILMN_2406410),8.04E-01
same,AveExpr.ST7612 RHOBTB3 (probe ILMN_1744949),8.25E-01
same,AveExpr.ST7612 RHOC (probe ILMN_1673305),9.02E-01
same,AveExpr.ST7612 RNASE4 (probe ILMN_1776602),7.33E-01
same,AveExpr.ST7612 RND2 (probe ILMN_1736533),7.06E-01
same,AveExpr.ST7612 RNF24 (probe ILMN_1717809),7.24E-01
same,AveExpr.ST7612 RTN2 (probe ILMN_1749115),8.60E-01
same,AveExpr.ST7612 RTN3 (probe ILMN_2363065),7.08E-01
same,AveExpr.ST7612 SBK1 (probe ILMN_1728298),8.80E-01
same,AveExpr.ST7612 SCARNA11 (probe ILMN_3236010),6.95E-01
same,AveExpr.ST7612 SCARNA13 (probe ILMN_3235325),7.18E-01
same,AveExpr.ST7612 SCARNA14 (probe ILMN_3247636),7.31E-01
same,AveExpr.ST7612 SDCBP (probe ILMN_2363586),8.86E-01
same,AveExpr.ST7612 SDCBP (probe ILMN_2363591),8.22E-01
same,AveExpr.ST7612 SDHAP2 (probe ILMN_3248781),7.07E-01
same,AveExpr.ST7612 SEMA4D (probe ILMN_1687533),7.86E-01
same,AveExpr.ST7612 SEMA4F (probe ILMN_1805007),7.51E-01
same,AveExpr.ST7612 SERPINB9 (probe ILMN_1742052),7.55E-01
same,AveExpr.ST7612 SERPINI1 (probe ILMN_1814333),7.79E-01
same,AveExpr.ST7612 SGK (probe ILMN_1702487),8.82E-01
same,AveExpr.ST7612 SH3GLB2 (probe ILMN_2158336),6.85E-01
same,AveExpr.ST7612 SLC23A2 (probe ILMN_1746578),7.82E-01
same,AveExpr.ST7612 SLC25A4 (probe ILMN_1681670),8.53E-01
same,AveExpr.ST7612 SLC25A4 (probe ILMN_2211780),7.98E-01
same,AveExpr.ST7612 SLC25A23 (probe ILMN_1679949),7.04E-01
same,AveExpr.ST7612 SLC44A2 (probe ILMN_1771987),7.92E-01
same,AveExpr.ST7612 SLC45A3 (probe ILMN_1726114),7.11E-01
same,AveExpr.ST7612 SLFN11 (probe ILMN_1752520),7.62E-01
same,AveExpr.ST7612 SNAP23 (probe ILMN_1687519),8.74E-01
same,AveExpr.ST7612 SNORD31 (probe ILMN_2072391),7.85E-01
same,AveExpr.ST7612 SORT1 (probe ILMN_1707077),8.42E-01
same,AveExpr.ST7612 SPAG9 (probe ILMN_2263718),7.33E-01
same,AveExpr.ST7612 SPINT2 (probe ILMN_1800739),8.11E-01
same,AveExpr.ST7612 SREBF1 (probe ILMN_1663035),7.22E-01
same,AveExpr.ST7612 SRGN (probe ILMN_1760347),7.62E-01
same,AveExpr.ST7612 SRGN (probe ILMN_2169152),7.60E-01
same,AveExpr.ST7612 STARD10 (probe ILMN_1717052),8.01E-01
same,AveExpr.ST7612 STK17B (probe ILMN_1798543),7.91E-01
same,AveExpr.ST7612 STMN3 (probe ILMN_3244117),9.01E-01
same,AveExpr.ST7612 STX3 (probe ILMN_1659544),8.71E-01
same,AveExpr.ST7612 SUSD3 (probe ILMN_1785570),8.58E-01
same,AveExpr.ST7612 TACC1 (probe ILMN_1770084),7.64E-01
